This note sets out measurements from PubChem BioAssay (NCI).

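Each compound was tested at five concentrations against cells in 96-well plates for 48 hours. TGI: total growth inhibition.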

Among the test systems are RPMI-8226 leukemia; SN12C renal; HCC-2998 colon; NCI-H522 lung; COLO 205 colon; 786-0 renal; MCF7 breast; MOLT-4 leukemia; SW-620 colon; PC-3 prostate; MALME-3M melanoma; HS 578T breast; DU-145 prostate; UACC-62 melanoma; MDA-MB-435; SNB-75 CNS; OVCAR-4 ovarian; A549 NSCLC; SK-MEL-28 melanoma.
Common to all, as to assay: DTP human tumour cell line panel, 48 h

Regarding `Nc1ccc(S(=O)(=O)c2ccc(NC(=O)c3cccnc3)cc2)cc1`, the TGI in the assay with RPMI-8226 leukemia, in the assay with SN12C renal, in the assay with HCC-2998 colon, in the assay with NCI-H522 lung, in the assay with COLO 205 colon and in the assay on 786-0 renal was over 100 µM throughout. Also, the total growth inhibition concentration (TGI) with MCF7 breast, in the assay with MOLT-4 leukemia, in the assay on SW-620 colon, in the assay with PC-3 prostate, with MALME-3M melanoma and in the assay on HS 578T breast was over 100 µM each time. Besides, the TGI with DU-145 prostate, with UACC-62 melanoma, in the assay on MDA-MB-435, with SNB-75 CNS, with OVCAR-4 ovarian and with A549 NSCLC was over 100 µM in each case. The molecule further registered a TGI with SK-MEL-28 melanoma of over 100 µM.

Consider `O=[N+]([O-])/C(C(Cl)=C(Cl)Cl)=C1/OCCS1`, for which the concentration for total growth inhibition (TGI) in the assay with RPMI-8226 leukemia was 66.2 µM; in the assay with SN12C renal, 43.8 µM; with HCC-2998 colon, over 100 µM; in the assay with NCI-H522 lung it was 79.7 µM; in the assay with COLO 205 colon, 36.8 µM; in the assay on 786-0 renal it was 38.6 µM. For the same molecule, the TGI was over 100 µM in the assay on MCF7 breast; 41.2 µM in the assay on MOLT-4 leukemia; over 100 µM in the assay on PC-3 prostate; 40.8 µM in the assay on MALME-3M melanoma; 87.6 µM in the assay on HS 578T breast; over 100 µM with DU-145 prostate. For the same molecule, the TGI in the assay with UACC-62 melanoma is 61.9 µM; in the assay on MDA-MB-435 it was 47.3 µM; with SNB-75 CNS, 50.6 µM; in the assay with OVCAR-4 ovarian, over 100 µM; in the assay with A549 NSCLC, 55.6 µM; in the assay with SK-MEL-28 melanoma, 96.5 µM.

Regarding `C1=NCCOCCN=Cc2ccccc2OCc2cccc(n2)COc2ccccc21`, the TGI in the assay on RPMI-8226 leukemia was 14 µM; with SN12C renal it was 15.2 µM; with NCI-H522 lung it was over 25 µM; in the assay with COLO 205 colon, over 25 µM; with 786-0 renal it was over 25 µM; in the assay with MCF7 breast, 19.4 µM. The concentration for total growth inhibition (TGI) is 18.4 µM in the assay on MOLT-4 leukemia; over 25 µM in the assay with SW-620 colon; over 25 µM in the assay with PC-3 prostate; 22.5 µM in the assay on MALME-3M melanoma; 15 µM with HS 578T breast; 20.7 µM in the assay on DU-145 prostate. In addition, the TGI was 9.09 µM in the assay on UACC-62 melanoma; 3.68 µM in the assay on MDA-MB-435; 12.9 µM in the assay with SNB-75 CNS; over 25 µM in the assay with OVCAR-4 ovarian; over 25 µM with A549 NSCLC; over 25 µM in the assay with SK-MEL-28 melanoma.

Take `CCc1cc2c(cc1CCCC(=O)O)CC1(Cc3ccc(C(=O)O)cc3C1)C2` (stereo unspecified): the TGI with RPMI-8226 leukemia, with SN12C renal, in the assay with HCC-2998 colon, in the assay with NCI-H522 lung, with COLO 205 colon and in the assay on 786-0 renal was over 100 µM in each case. Besides, the concentration for total growth inhibition (TGI) in the assay with MCF7 breast, with MOLT-4 leukemia, in the assay on SW-620 colon, with PC-3 prostate, in the assay with MALME-3M melanoma and with HS 578T breast was over 100 µM in each case. Further, the concentration for total growth inhibition (TGI) in the assay on DU-145 prostate, in the assay on MDA-MB-435, with SNB-75 CNS, in the assay with OVCAR-4 ovarian, in the assay on A549 NSCLC and with SK-MEL-28 melanoma was over 100 µM each time.

Regarding `O=C(CC(C(=O)c1cccs1)c1ccsc1)c1ccsc1` (stereo unspecified), the TGI in the assay with RPMI-8226 leukemia is over 100 µM; in the assay with SN12C renal it was over 100 µM; with HCC-2998 colon it was over 100 µM; in the assay with NCI-H522 lung, 50 µM; in the assay on COLO 205 colon, 53.5 µM; in the assay on 786-0 renal, over 100 µM. Besides, the total growth inhibition concentration (TGI) in the assay with MCF7 breast is over 100 µM; in the assay on MOLT-4 leukemia, over 100 µM; with SW-620 colon, over 100 µM; in the assay with PC-3 prostate it was over 100 µM; with MALME-3M melanoma, over 100 µM; in the assay on HS 578T breast, 71.2 µM. Further, the TGI in the assay with DU-145 prostate, in the assay on UACC-62 melanoma, in the assay on MDA-MB-435, in the assay with SNB-75 CNS, with OVCAR-4 ovarian and with A549 NSCLC was over 100 µM throughout. This molecule gave a TGI with SK-MEL-28 melanoma of over 100 µM.

In the case of `NC(N)=NC(N)=Nc1c(F)c(F)c(F)c(F)c1F`, the TGI in the assay with RPMI-8226 leukemia, in the assay with SN12C renal, in the assay on NCI-H522 lung, in the assay with COLO 205 colon, in the assay with 786-0 renal and with MCF7 breast was over 100 µM in each case. For the same molecule, the TGI in the assay with SW-620 colon, with PC-3 prostate, with MALME-3M melanoma, in the assay on HS 578T breast, in the assay with DU-145 prostate and in the assay on UACC-62 melanoma was over 100 µM each time. Besides, the TGI with MDA-MB-435, in the assay on SNB-75 CNS, in the assay on OVCAR-4 ovarian, in the assay on A549 NSCLC and with SK-MEL-28 melanoma was over 100 µM throughout.

For the molecule `Cc1cc(NS(=O)(=O)c2ccc(Nc3c4ccccc4nc4ccc(C(=O)Nc5ccc(S(=O)(=O)N=C(N)N)cc5)cc34)cc2)no1`, the TGI in the assay with RPMI-8226 leukemia, in the assay on SN12C renal, in the assay on HCC-2998 colon, with NCI-H522 lung, in the assay with COLO 205 colon and in the assay on 786-0 renal was over 100 µM throughout. Besides, the TGI with MCF7 breast, in the assay on MOLT-4 leukemia, in the assay with SW-620 colon, with PC-3 prostate, in the assay with MALME-3M melanoma and with HS 578T breast was over 100 µM in each case. Further, the total growth inhibition concentration (TGI) with DU-145 prostate, in the assay with UACC-62 melanoma, in the assay on MDA-MB-435, in the assay with SNB-75 CNS, with OVCAR-4 ovarian and with A549 NSCLC was over 100 µM each time. For the same molecule, the concentration for total growth inhibition (TGI) in the assay with SK-MEL-28 melanoma was over 100 µM.

Turning to `NC1=Nc2ccccc2Sc2nnc(-c3ccc(Cl)cc3)n21`, the TGI in the assay with RPMI-8226 leukemia is over 100 µM; with SN12C renal, over 100 µM; in the assay on HCC-2998 colon, over 100 µM; with NCI-H522 lung, 68.3 µM; with COLO 205 colon it was over 100 µM; with 786-0 renal, 82.6 µM. In addition, the TGI in the assay on MCF7 breast was over 100 µM; in the assay on MOLT-4 leukemia it was 72.2 µM; in the assay with SW-620 colon, over 100 µM; with PC-3 prostate, over 100 µM; with MALME-3M melanoma, over 100 µM; with HS 578T breast it was over 100 µM. The TGI in the assay with DU-145 prostate, with UACC-62 melanoma, with MDA-MB-435, in the assay with SNB-75 CNS, in the assay on OVCAR-4 ovarian and in the assay on A549 NSCLC was over 100 µM each time. The same molecule returned a total growth inhibition concentration (TGI) in the assay on SK-MEL-28 melanoma of over 100 µM.

For the molecule `CCOC(=O)N1CCN(C(=O)Nc2cccc3ccccc23)CC1`, the TGI with RPMI-8226 leukemia, with SN12C renal, in the assay on HCC-2998 colon, with NCI-H522 lung, in the assay with COLO 205 colon and in the assay on MCF7 breast was over 10 µM throughout. The TGI with MOLT-4 leukemia, in the assay on SW-620 colon, in the assay on PC-3 prostate, in the assay with MALME-3M melanoma, with HS 578T breast and in the assay with DU-145 prostate was over 10 µM throughout. The concentration for total growth inhibition (TGI) in the assay on UACC-62 melanoma, with MDA-MB-435, in the assay on SNB-75 CNS, with OVCAR-4 ovarian, with A549 NSCLC and in the assay with SK-MEL-28 melanoma was over 10 µM in each case.

For `c1ccc2c(c1)CCN2CCc1c[nH]c2ccccc12`, the TGI in the assay with RPMI-8226 leukemia, in the assay with SN12C renal, in the assay with HCC-2998 colon, with NCI-H522 lung, in the assay on COLO 205 colon and with 786-0 renal was over 10 µM each time. Also, the TGI with MCF7 breast, in the assay on MOLT-4 leukemia, in the assay on SW-620 colon, with PC-3 prostate, with MALME-3M melanoma and in the assay on HS 578T breast was over 10 µM throughout. Also, the concentration for total growth inhibition (TGI) in the assay on DU-145 prostate, in the assay on UACC-62 melanoma, in the assay with MDA-MB-435, with SNB-75 CNS, in the assay on OVCAR-4 ovarian and with A549 NSCLC was over 10 µM throughout. In the assay with SK-MEL-28 melanoma, this molecule gave a total growth inhibition concentration (TGI) of over 10 µM.

For the molecule `N=c1oc2ccc(Cl)cc2cc1C(=O)Nc1ccccc1`, the total growth inhibition concentration (TGI) in the assay with RPMI-8226 leukemia, in the assay on SN12C renal, in the assay with HCC-2998 colon, with NCI-H522 lung, with COLO 205 colon and in the assay on 786-0 renal was over 100 µM throughout. The total growth inhibition concentration (TGI) with MCF7 breast is over 100 µM; in the assay on MOLT-4 leukemia, over 100 µM; with SW-620 colon, over 100 µM; with PC-3 prostate, over 100 µM; in the assay on MALME-3M melanoma, over 100 µM; in the assay with HS 578T breast it was over 59.6 µM. The total growth inhibition concentration (TGI) in the assay on DU-145 prostate is over 100 µM; in the assay on UACC-62 melanoma, over 100 µM; in the assay with MDA-MB-435 it was over 100 µM; in the assay on SNB-75 CNS, over 86.4 µM; in the assay on OVCAR-4 ovarian, over 100 µM; in the assay on A549 NSCLC it was over 100 µM. For the same molecule, in the assay with SK-MEL-28 melanoma, the TGI was over 100 µM.

In the case of `O=C1CC(CC(OCc2ccccc2)C(COCc2ccccc2)OCc2ccccc2)CC(=O)N1` (stereo unspecified), the TGI in the assay on RPMI-8226 leukemia is over 100 µM; in the assay on SN12C renal, over 100 µM; in the assay with HCC-2998 colon, over 100 µM; in the assay with NCI-H522 lung, 61.7 µM; with COLO 205 colon, 39.6 µM; with 786-0 renal, over 100 µM. Also, the TGI is over 100 µM with MCF7 breast; 74.8 µM with MOLT-4 leukemia; over 100 µM in the assay with SW-620 colon; 63.9 µM with PC-3 prostate; 45.8 µM in the assay on MALME-3M melanoma; over 100 µM in the assay with HS 578T breast. Further, the total growth inhibition concentration (TGI) with DU-145 prostate was over 100 µM; in the assay with MDA-MB-435, 85 µM; in the assay with SNB-75 CNS, over 100 µM; in the assay with OVCAR-4 ovarian, over 100 µM; in the assay on A549 NSCLC, over 100 µM; in the assay on SK-MEL-28 melanoma it was over 100 µM.
